The assay concerns the target T1, human recombinant HDAC6 (Homo sapiens, UniProt Q9UBN7).
T1 construct: purchased Calbiochem 382180
T1 sequence (Q9UBN7 1-1215): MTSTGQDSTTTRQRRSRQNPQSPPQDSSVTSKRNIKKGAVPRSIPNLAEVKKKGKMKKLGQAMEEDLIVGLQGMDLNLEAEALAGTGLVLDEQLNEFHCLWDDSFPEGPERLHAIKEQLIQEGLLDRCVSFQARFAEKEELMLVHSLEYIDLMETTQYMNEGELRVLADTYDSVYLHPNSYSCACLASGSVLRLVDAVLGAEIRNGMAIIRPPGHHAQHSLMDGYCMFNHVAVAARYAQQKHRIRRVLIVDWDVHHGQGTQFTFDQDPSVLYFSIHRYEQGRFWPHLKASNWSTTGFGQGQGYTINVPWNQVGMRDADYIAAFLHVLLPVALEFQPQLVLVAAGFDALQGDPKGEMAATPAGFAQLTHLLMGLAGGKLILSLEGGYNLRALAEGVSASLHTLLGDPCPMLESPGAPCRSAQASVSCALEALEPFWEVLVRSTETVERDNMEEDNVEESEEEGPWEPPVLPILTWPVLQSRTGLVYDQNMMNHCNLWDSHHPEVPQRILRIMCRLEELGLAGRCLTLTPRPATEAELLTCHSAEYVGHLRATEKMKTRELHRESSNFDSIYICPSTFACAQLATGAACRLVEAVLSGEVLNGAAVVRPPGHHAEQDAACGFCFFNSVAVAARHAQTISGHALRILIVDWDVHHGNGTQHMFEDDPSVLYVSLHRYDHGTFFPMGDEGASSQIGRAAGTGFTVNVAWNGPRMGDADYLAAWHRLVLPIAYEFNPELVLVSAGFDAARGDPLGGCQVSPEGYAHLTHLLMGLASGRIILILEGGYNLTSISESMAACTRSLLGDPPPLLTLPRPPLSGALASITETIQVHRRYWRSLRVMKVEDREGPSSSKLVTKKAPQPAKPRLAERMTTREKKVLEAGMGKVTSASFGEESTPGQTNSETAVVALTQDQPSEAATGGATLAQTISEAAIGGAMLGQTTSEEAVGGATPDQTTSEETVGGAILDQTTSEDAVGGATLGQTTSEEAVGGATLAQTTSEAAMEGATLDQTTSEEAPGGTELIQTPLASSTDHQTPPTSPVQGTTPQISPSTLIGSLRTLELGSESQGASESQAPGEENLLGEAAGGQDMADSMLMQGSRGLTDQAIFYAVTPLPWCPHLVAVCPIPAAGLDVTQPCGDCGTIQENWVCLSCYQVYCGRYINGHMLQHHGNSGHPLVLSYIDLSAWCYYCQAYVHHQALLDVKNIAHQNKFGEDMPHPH
The experiment in a line: HDAC6 enzyme activity inhibition assay (HDAC Fluorimetric Drug Discovery Kit). The format is biochemical. Particulars: for HDAC6 selectivity (fold): HDAC1 vs HDAC6; for IC50: same protocol as the HDAC1 enzyme activity test. The method in brief:
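5-fold compound dilutions + 0.3 μg enzyme + 10 μM Fluor de Lys-SIRT1 substrate, 60 min, 30° C; Developer II 30 min; fluorescence Ex 360/Em 460; IC50 by curve fit.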

SMILES strings stand for the structures.

A word on the IC50: it is the concentration that gives 50% inhibition.

On to `O=S(=O)(C1CCN(C2CC(F)C2)CC1)N(Cc1ccc(-c2nnc(C(F)F)o2)cc1)c1cccc(Cl)c1` (centres unmarked) [Compound 11840, N-(3-chlorophenyl)-N-(4-(5-(difluoromethyl)-1,3,4-oxadiazol-2-yl)benzyl)-1-(3-fluorocyclobutyl)piperidine-4-sulfonamide], for which the “HDAC6 selectivity (fold)” value is given as 520 fold and the IC50 worked out at 0.192 µM.

`O=S(=O)(CCCN1CCOCC1)N(Cc1ccc(-c2nnc(C(F)F)o2)cc1F)c1ccccc1` [Compound 11588, N-(4-(5-(difluoromethyl)-1,3,4-oxadiazol-2-yl)-2-fluorobenzyl)-3-morpholino-N-phenylpropane-1-sulfonamide]: the “HDAC6 selectivity (fold)” value is recorded as 2273 fold and the IC50 stood at 0.044 µM.

With `CS(=O)(=O)N(Cc1ccc(-c2nnc(C(F)F)o2)cc1F)c1ccccc1` [Compound 11170, N-(4-(5-(difluoromethyl)-1,3,4-oxadiazol-2-yl)-2-fluorobenzyl)-N-phenylmethanesulfonamide], the “HDAC6 selectivity (fold)” value is given as 7143 fold and the IC50 turned out to be 0.014 µM.

For the compound `CS(=O)(=O)N(Cc1ccc(-c2nnc(C(F)(F)F)o2)cc1F)c1ccccc1F` [Compound 11273, N-(2-fluoro-4-(5-(trifluoromethyl)-1,3,4-oxadiazol-2-yl)benzyl)-N-(2-fluorophenyl)methanesulfonamide], the “HDAC6 selectivity (fold)” value was 1266 fold and the IC50 was 0.079 µM.

Take `O=S(=O)(CCCN1CCCCC1)N(Cc1ccc(-c2nnc(C(F)F)o2)cc1)c1ccccc1` [Compound 11657, N-(4-(5-(difluoromethyl)-1,3,4-oxadiazol-2-yl)benzyl)-N-phenyl-3-(piperidin-1-yl)propane-1-sulfonamide]: the “HDAC6 selectivity (fold)” value amounted to 1219 fold and the IC50 was 0.082 µM.

Take `O=S1(=O)CCC(S(=O)(=O)N(Cc2ccc(-c3nnc(C(F)F)o3)cn2)c2ccccc2)CC1` [Compound 11350, N-((5-(5-(difluoromethyl)-1,3,4-oxadiazol-2-yl)pyridin-2-yl)methyl)-N-phenyltetrahydro-2H-thiopyran-4-sulfonamide 1,1-dioxide]: the “HDAC6 selectivity (fold)” value was determined as 10000 fold and the IC50 was determined as 0.01 µM.

Take `O=S(=O)(CCN1CC[C@@H](F)C1)N(Cc1ccc(-c2nnc(C(F)F)o2)cc1)c1ccccc1` [Compound 11753, (R)—N-(4-(5-(difluoromethyl)-1,3,4-oxadiazol-2-yl)benzyl)-2-(3-fluoropyrrolidin-1-yl)-N-phenylethane-1-sulfonamide]: the “HDAC6 selectivity (fold)” value came out at 953 fold and the half-inhibitory concentration (IC50) is 0.105 µM.

On to `CS(=O)(=O)N(Cc1ccc(-c2nnc(C(F)F)o2)cc1F)c1ccccc1Cl` [Compound 11280, N-(2-chlorophenyl)-N-(4-(5-(difluoromethyl)-1,3,4-oxadiazol-2-yl)-2-fluorobenzyl)methanesulfonamide], for which the “HDAC6 selectivity (fold)” value stood at 1266 fold and the half-maximal inhibitory concentration (IC50) turned out to be 0.079 µM.

Consider `CS(=O)(=O)N(Cc1ccc(-c2nnc(C(F)F)o2)cc1F)[C@H]1CCc2ccccc21` [Compound 11749, (S)—N-(4-(5-(difluoromethyl)-1,3,4-oxadiazol-2-yl)-2-fluorobenzyl)-N-(2,3-dihydro-1H-inden-1-yl)methanesulfonamide], for which the “HDAC6 selectivity (fold)” value worked out at 255 fold and the IC50 came out at 0.391 µM.

With `CN1CCC(S(=O)(=O)N(Cc2ccc(-c3nnc(C(F)F)o3)cc2F)c2ccccc2)CC1` [Compound 11372, N-(4-(5-(difluoromethyl)-1,3,4-oxadiazol-2-yl)-2-fluorobenzyl)-1-methyl-N-phenylpiperidine-4-sulfonamide], the “HDAC6 selectivity (fold)” value is listed as 11111 fold and the IC50 came out at 0.009 µM.

For `CS(=O)(=O)NCc1ccc(-c2nnc(C(F)(F)F)o2)cc1` [Compound 11121, N-(4-(5-(trifluoromethyl)-1,3,4-oxadiazol-2-yl)benzyl)methanesulfonamide], the “HDAC6 selectivity (fold)” value came to 39 fold and the IC50 amounted to 2.54 µM.

For the compound `CS(=O)(=O)N(Cc1ccc(-c2nnc(C(F)F)o2)cc1)c1cccnc1` [Compound 11628, N-(4-(5-(difluoromethyl)-1,3,4-oxadiazol-2-yl)benzyl)-N-(pyridin-3-yl)methanesulfonamide], the “HDAC6 selectivity (fold)” value came out at 2083 fold and the IC50 is 0.048 µM.

Turning to `CC(C)(C)OC(=O)N1CC2(CCN(CCS(=O)(=O)N(Cc3ccc(-c4nnc(C(F)F)o4)cc3)c3ccccc3)CC2)C1` [Compound 11814, tert-butyl 7-(2-(N-(4-(5-(difluoromethyl)-1,3,4-oxadiazol-2-yl)benzyl)-N-phenylsulfamoyl)ethyl)-2,7-diazaspiro[3.5]nonane-2-carboxylate], the “HDAC6 selectivity (fold)” value was found to be 88 fold and the IC50 is 1.13 µM.

As for `O=S(=O)(c1cccnc1)N(Cc1ccc(-c2nnc(C(F)F)o2)cc1)c1ccccc1` [Compound 11152, N-(4-(5-(difluoromethyl)-1,3,4-oxadiazol-2-yl)benzyl)-N-phenylpyridine-3-sulfonamide], the “HDAC6 selectivity (fold)” value turned out to be 1724 fold and the IC50 stood at 0.058 µM.

With `CS(=O)(=O)N(Cc1ccc(-c2nnc(C(F)F)o2)cc1F)c1cccc(C(F)(F)F)c1` [Compound 11176, N-(4-(5-(difluoromethyl)-1,3,4-oxadiazol-2-yl)-2-fluorobenzyl)-N-(3-(trifluoromethyl)phenyl)methanesulfonamide], the “HDAC6 selectivity (fold)” value is on record as 3571 fold and the IC50 stood at 0.028 µM.

Consider `CN(C)[C@@H]1CCN(CCS(=O)(=O)N(Cc2ccc(-c3nnc(C(F)F)o3)cc2)c2ccccc2)C1` [Compound 11754, (R)—N-(4-(5-(difluoromethyl)-1,3,4-oxadiazol-2-yl)benzyl)-2-(3-(dimethylamino)pyrrolidin-1-yl)-N-phenylethane-1-sulfonamide], for which the “HDAC6 selectivity (fold)” value came out at 1420 fold and the IC50 is 0.0704 µM.

Turning to `CS(=O)(=O)N(Cc1ccc(-c2nnc(C(F)F)o2)cc1F)c1ccc2ncoc2c1` [Compound 11774, N-(benzo[d]oxazol-6-yl)-N-(4-(5-(difluoromethyl)-1,3,4-oxadiazol-2-yl)-2-fluorobenzyl)methanesulfonamide], the “HDAC6 selectivity (fold)” value was 1503 fold and the IC50 was 0.0665 µM.

In the case of `C[C@@H]1CN(CCS(=O)(=O)N(Cc2ccc(-c3nnc(C(F)F)o3)cc2)c2ccccc2)C[C@H](C)N1` [Compound 11632, N-(4-(5-(difluoromethyl)-1,3,4-oxadiazol-2-yl)benzyl)-2-((3S,5R)-3,5-dimethylpiperazin-1-yl)-N-phenylethane-1-sulfonamide], the “HDAC6 selectivity (fold)” value is 1587 fold and the IC50 is 0.063 µM.

Consider `O=S1(=O)CCC(S(=O)(=O)N(Cc2ccc(-c3nnc(C(F)F)o3)cc2F)c2cccc(F)c2)CC1` [Compound 11256, N-(4-(5-(difluoromethyl)-1,3,4-oxadiazol-2-yl)-2-fluorobenzyl)-N-(3-fluorophenyl)tetrahydro-2H-thiopyran-4-sulfonamide 1,1-dioxide], for which the “HDAC6 selectivity (fold)” value is reported as 7692 fold and the IC50 is 0.013 µM.

On to `CS(=O)(=O)N(Cc1ccc(-c2nnc(C(F)F)o2)cc1F)[C@@H]1CCc2ccccc21` [Compound 11748, (R)—N-(4-(5-(difluoromethyl)-1,3,4-oxadiazol-2-yl)-2-fluorobenzyl)-N-(2,3-dihydro-1H-inden-1-yl)methanesulfonamide], for which the “HDAC6 selectivity (fold)” value worked out at 230 fold and the IC50 came out at 0.433 µM.

Regarding `O=S(=O)(c1cccnc1)N(Cc1ccc(-c2nnc(C(F)F)o2)cc1F)c1cccc(F)c1` [Compound 11225, N-(4-(5-(difluoromethyl)-1,3,4-oxadiazol-2-yl)-2-fluorobenzyl)-N-(3-fluorophenyl)pyridine-3-sulfonamide], the “HDAC6 selectivity (fold)” value came out at 4167 fold and the IC50 is 0.024 µM.

Take `O=S(=O)(CCN1CCCOCC1)N(Cc1ccc(-c2nnc(C(F)F)o2)cc1)c1ccccc1` [Compound 11752, N-(4-(5-(difluoromethyl)-1,3,4-oxadiazol-2-yl)benzyl)-2-(1,4-oxazepan-4-yl)-N-phenylethane-1-sulfonamide]: the “HDAC6 selectivity (fold)” value was found to be 868 fold and the concentration for half-maximal inhibition (IC50) came to 0.115 µM.

These data come from patent US10538498B2, “1,3,4-oxadiazole sulfonamide derivative compounds as histone deacetylase 6 inhibitor, and the pharmaceutical composition comprising the same” (Chong Kun Dang Pharmaceutical Corp., priority 2015, dated 2020).
